Measured values reported in patent publication US9695155B2, “Herbicidal substituted pyrimidinyloxy benzene compounds” (E. I. DU PONT DE NEMOURS AND COMPANY, priority 2013, dated 2017).

Tests used:
[1] = tested on: barnyardgrass; experiment: Test C preemergence; assay type: in vivo, Echinochloa crus-galli; settings: for Barnyardgrass plant response rating: preemergence, scale 0 (no effect) to 100 (complete control)
Method in brief: (§1)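 Visual ratings on a 0–100 scale (100 = complete control) were made versus untreated controls after 13–15 greenhouse days. Chemicals in a surfactant-containing non-phytotoxic solvent were applied either preemergence to seeds in loam–sand soil or postemergence to 1- to 4-leaf plants 2–18 cm tall.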

[2] = tested on: morningglory; experiment: Test A preemergence; assay type: in vivo, Ipomoea spp.
Method in brief: (§2)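 Visual 0–100 rating (100 = complete control) taken about 10 d post-treatment relative to untreated checks. Preemergence: directed soil spray on sown loam/sand pots. Postemergence: seedlings 2–10 cm, 1–2 leaf. Non-phytotoxic solvent formulation with surfactant.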

[3] = tested on: barnyardgrass; experiment: Test B flooded paddy test; assay type: in vivo, Echinochloa crus-galli; settings: Flood, 250 g ai/ha; 0 to 100 scale where 0 is no effect and 100 is complete control
Method in brief: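 Compound added straight to paddy water, with pots kept flooded 3 cm above soil, on plants grown to the 2-leaf stage. Visual scoring 0-100 (100 = complete control) against untreated controls after 13 to 15 greenhouse days.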

[4] = tested on: Italian ryegrass; experiment: Test C postemergence; assay type: in vivo, Lolium multiflorum; settings: for Plant response rating (0 to 100), Ryegrass, Italian: postemergence; for Plant response rating, Ryegrass, Italian: Postemergence, scale 0 to 100 (0 no effect, 100 complete control)
Method in brief: as §1

[5] = tested on: large (Lg) crabgrass; experiment: Test A postemergence; assay type: in vivo, Digitaria sanguinalis
Method in brief: as §2

[6] = tested on: morningglory; experiment: Test C postemergence; assay type: in vivo, Ipomoea coccinea; settings: for Plant response rating (0 to 100), Morningglory: postemergence; for Plant response rating, Morningglory: Postemergence, scale 0 to 100 (0 no effect, 100 complete control)
Method in brief: as §1

[7] = tested on: lambsquarters; experiment: Test C preemergence; assay type: in vivo, Chenopodium album; settings: for Lambsquarters plant response rating: preemergence, scale 0 (no effect) to 100 (complete control)
Method in brief: as §1

[8] = tested on: giant foxtail; experiment: Test A preemergence; assay type: in vivo, Setaria faberii
Method in brief: as §2

[9] = tested on: wheat; experiment: Test A postemergence; assay type: in vivo, Triticum aestivum; settings: 0 to 100 scale where 0 is no effect and 100 is complete control
Method in brief: as §2

[10] = tested on: pigweed; experiment: Test C postemergence; assay type: in vivo, Amaranthus retroflexus; settings: for Plant response rating (0 to 100), Pigweed: postemergence; for Plant response rating, Pigweed: Postemergence, scale 0 to 100 (0 no effect, 100 complete control)
Method in brief: as §1

[11] = tested on: wheat, winter; experiment: Test C preemergence; assay type: in vivo, Triticum aestivum; settings: for Wheat plant response rating: preemergence, scale 0 (no effect) to 100 (complete control)
Method in brief: as §1

[12] = tested on: pigweed; experiment: Test A postemergence; assay type: in vivo, Amaranthus retroflexus; settings: 0 to 100 scale where 0 is no effect and 100 is complete control
Method in brief: as §2

[13] = tested on: velvetleaf; experiment: Test A postemergence; assay type: in vivo, Abutilon theophrasti; settings: 0 to 100 scale where 0 is no effect and 100 is complete control
Method in brief: as §2

[14] = tested on: velvetleaf; experiment: Test A preemergence; assay type: in vivo, Abutilon theophrasti
Method in brief: as §2

[15] = tested on: kochia; experiment: Test C postemergence; assay type: in vivo, Kochia scoparia; settings: for Plant response rating (0 to 100), Kochia: postemergence; for Plant response rating, Kochia: Postemergence, scale 0 to 100 (0 no effect, 100 complete control)
Method in brief: as §1

[16] = tested on: corn; experiment: Test A preemergence; assay type: in vivo, Zea mays
Method in brief: as §2

[17] = Preemergence, 31 g ai/ha, scale 0 to 100, 0 no effect, 100 complete control
[18] = 125 g ai/ha, 0 to 100 scale where 0 is no effect and 100 is complete control
[19] = 500 g ai/ha, 0 to 100 scale, 0 no effect, 100 complete control, approx. 10 days

In the case of `N#Cc1cccc(Oc2ncc(F)cn2)c1-n1cc(Cl)cn1` [Compound 73], the “Barnyardgrass plant response rating” value ([1]; 62 g ai/ha) was 80, the “Barnyardgrass plant response rating” value ([1]; 125 g ai/ha) was 100 and the “Barnyardgrass plant response rating” value ([1]; 250 g ai/ha) was 100. The “Plant response rating, Barnyardgrass” value [1, 17] was 60, the “Plant response rating, Morningglory” value [2, 18] was 90 and the “Morningglory plant response rating” value [2, 19] was 100. For the same molecule, the “Plant response rating, Barnyardgrass” value [3] was 0, the “Plant response rating (0 to 100), Ryegrass, Italian” value ([4]; 125 g ai/ha) was 0 and the “Plant response rating (0 to 100), Ryegrass, Italian” value ([4]; 250 g ai/ha) was 5. The “Plant response rating, Ryegrass, Italian” value ([4]; 31 g ai/ha, 13 to 15 days) was 0, the “Plant response rating, Ryegrass, Italian” value ([4]; 62 g ai/ha) was 0 and the “Plant response rating, Crabgrass, Large” value [5, 18] was 90. For the same molecule, the “Plant response rating, Crabgrass, Large” value ([5]; 500 g ai/ha, 0 to 100 scale, 0 no effect, 100 complete control) was 100, the “Plant response rating (0 to 100), Morningglory” value ([6]; 125 g ai/ha) was 85 and the “Plant response rating (0 to 100), Morningglory” value ([6]; 250 g ai/ha) was 85. For the same molecule, the “Plant response rating, Morningglory” value ([6]; 31 g ai/ha, 13 to 15 days) was 65, the “Plant response rating, Morningglory” value ([6]; 62 g ai/ha) was 65 and the “Lambsquarters plant response rating” value ([7]; 62 g ai/ha) was 98. The “Lambsquarters plant response rating” value ([7]; 125 g ai/ha) was 98, the “Lambsquarters plant response rating” value ([7]; 250 g ai/ha) was 98 and the “Plant response rating, Lambsquarters” value [7, 17] was 60. For the same molecule, the “Plant response rating, Foxtail, Giant” value [8, 18] was 100, the “Foxtail, Giant plant response rating” value [8, 19] was 100 and the “Plant response rating, Wheat” value ([9]; 125 g ai/ha) was 20. For the same molecule, the “Plant response rating, Wheat” value ([9]; 500 g ai/ha) was 50, the “Plant response rating (0 to 100), Pigweed” value ([10]; 125 g ai/ha) was 80 and the “Plant response rating (0 to 100), Pigweed” value ([10]; 250 g ai/ha) was 90. The “Plant response rating, Pigweed” value ([10]; 31 g ai/ha, 13 to 15 days) was 45, the “Plant response rating, Pigweed” value ([10]; 62 g ai/ha) was 70 and the “Wheat plant response rating” value ([11]; 62 g ai/ha) was 0. For the same molecule, the “Wheat plant response rating” value ([11]; 125 g ai/ha) was 5, the “Wheat plant response rating” value ([11]; 250 g ai/ha) was 85 and the “Plant response rating, Wheat” value [11, 17] was 0. The “Plant response rating, Pigweed” value ([12]; 125 g ai/ha) was 100, the “Plant response rating, Pigweed” value ([12]; 500 g ai/ha) was 100 and the “Plant response rating, Velvetleaf” value ([13]; 125 g ai/ha) was 100. For the same molecule, the “Plant response rating, Velvetleaf” value ([13]; 500 g ai/ha) was 100, the “Plant response rating, Velvetleaf” value [14, 18] was 100 and the “Velvetleaf plant response rating” value [14, 19] was 100. The “Plant response rating (0 to 100), Kochia” value ([15]; 125 g ai/ha) was 90, the “Plant response rating (0 to 100), Kochia” value ([15]; 250 g ai/ha) was 90 and the “Plant response rating, Kochia” value ([15]; 31 g ai/ha, 13 to 15 days) was 80. For the same molecule, the “Plant response rating, Kochia” value ([15]; 62 g ai/ha) was 85, the “Plant response rating, Corn” value [16, 18] was 20 and the “Corn plant response rating” value [16, 19] was 70.
